Results: patent publication US12187709B2 (Genentech, Inc., priority 2021, dated 2025)

Assays:
Cbl-b = Cbl-b (Homo sapiens (Human), UniProt Q13191); test: Cbl-b LCK Ub TR-FRET assay (Cbl-b Lck HTRF); type: biochemical; conditions: for IC50: Cbl-b LCK Ub TR-FRET; for fold-selectivity (Cbl-b over C-cbl) / (fold-selectivity) Cbl-b and C-Cbl Selectivity: ratio C-cbl Lck HTRF IC50 / Cbl-b Lck HTRF IC50
Protocol: (§1) 6 μL of detection mixture was added to all wells and briefly centrifuged before incubating for 20 min at room temperature. […] IC50 was generated using no LCK as the low control and DMSO as the high control.

c-Cbl = c-Cbl (Homo sapiens (Human), UniProt P22681); test: C-Cbl LCK Ub TR-FRET assay (C-cbl Lck HTRF); type: biochemical
Sequence of c-Cbl (P22681 47-435): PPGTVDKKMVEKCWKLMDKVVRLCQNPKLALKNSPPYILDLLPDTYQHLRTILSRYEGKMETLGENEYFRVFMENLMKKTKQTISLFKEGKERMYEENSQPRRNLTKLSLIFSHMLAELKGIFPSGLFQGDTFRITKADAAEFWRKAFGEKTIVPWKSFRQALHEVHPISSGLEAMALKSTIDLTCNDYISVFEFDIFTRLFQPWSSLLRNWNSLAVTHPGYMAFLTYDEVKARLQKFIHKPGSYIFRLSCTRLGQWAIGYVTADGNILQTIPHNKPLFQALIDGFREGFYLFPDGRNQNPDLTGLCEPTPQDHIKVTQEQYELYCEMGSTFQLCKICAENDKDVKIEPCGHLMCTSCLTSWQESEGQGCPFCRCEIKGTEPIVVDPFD
Protocol: as §1

[1] = biological target: Human Cbl-b (residues 40-426) (Homo sapiens (Human), UniProt Q13191); test: Cbl-b SPR assay; type: binding; conditions: C-cbl SPR Kd vs Cbl-b SPR Kd
Sequence of Human Cbl-b (residues 40-426) (Q13191 40-426): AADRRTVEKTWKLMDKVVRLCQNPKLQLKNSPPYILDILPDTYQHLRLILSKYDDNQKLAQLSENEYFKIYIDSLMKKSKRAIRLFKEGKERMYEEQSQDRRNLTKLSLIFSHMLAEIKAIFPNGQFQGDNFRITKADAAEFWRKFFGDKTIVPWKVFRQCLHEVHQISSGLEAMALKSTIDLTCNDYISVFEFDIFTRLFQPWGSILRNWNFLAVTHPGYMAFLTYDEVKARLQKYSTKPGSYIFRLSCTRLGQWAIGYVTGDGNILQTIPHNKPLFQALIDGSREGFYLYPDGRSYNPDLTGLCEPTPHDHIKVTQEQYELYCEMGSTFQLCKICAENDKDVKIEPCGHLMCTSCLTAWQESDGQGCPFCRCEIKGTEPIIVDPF
Protocol: Affinity of binding to Cbl-b and c-Cbl for compounds described herein was assessed by surface plasmon resonance (SPR) according to the following protocol.
A surface capture range of 1300-1500 RU of protein was used for both isoforms.
For SPR measurements, 6 concentrations with 2 fold serial dilution were measured with blanks flanking each series for double referencing. […] SPR sensorgrams were recorded in multi-cycle kinetics format, with a contact time of 60 seconds and a flow rate of 40 μl/min, the dissociation time was varied between 120-1200 seconds aiming for 4-5 half-lives of the measured interaction.
Kinetic and affinity parameters were extracted from the multicycle kinetics data fitting to a 1:1 binding model using the Biacore™ Incyte evaluation software (Cytiva).
Chaser assay utilize a single cycle kinetics SPR experiment with a contact time of 120 seconds, a flow rate of 50 μl/min and a dissociation time of 450 seconds. Single cycle kinetics titration utilized an initial blank injection and 5 concentrations with 2 fold serial dilution with a maximum concentration of 500 nM, blanked to a preceding 6 point blank single cycle kinetics injection for double referencing.
The kd is measured independently by determining the percentage unoccupied compound binding site over time by measuring the binding of a chaser compound measured by SPR.
Chaser binding was measured by a multicycle kinetics SPR experiment using a contact time of 20 seconds, a flow rate of 30 μl/min, and a dissociation time of 120 seconds. […] The % compound bound at a given time was determined by comparison to a single injection of chaser preceding the single cycle kinetics titration defined below. % Compound Bound=(1−(RUT/RUT0))*100
The % compound bound is plotted against time in seconds and fit to a single exponential, where the exponent represents the kd of the compound-protein complex. The single cycle kinetics experiment of the compound is then fit with a fixed kd determined using the chaser.

Sequence of Cbl-b (Q13191 40-426): as above

Cn1cnnc1[C@](F)(c1ccccc1)c1cccc(N2Cc3c(cc(CNC4(C)CCC4)cc3C(F)(F)F)C2=O)c1 (single isomer, unassigned) [Compound 156]
IC50 (Cbl-b): 7700 nM | fold-selectivity (Cbl-b over C-cbl) (Cbl-b): 2.4x | IC50 (c-Cbl): 18000 nM

Cn1cnnc1[C@]1(c2cccc(N3Cc4c(cc(CNC5(C)CCC5)cc4C(F)(F)F)C3=O)c2)C[C@H](OC(F)(F)F)C1 [Compound 350, 2-(3-((1s,3s)-1-(4-methyl-4H-1,2,4-triazol-3-yl)-3-(trifluoromethoxy)cyclobutyl)phenyl)-6-(((1 methylcyclobutyl)amino)methyl)-4-(trifluoromethyl)isoindolin-1-one]
IC50 (Cbl-b): 16 nM | fold-selectivity (Cbl-b over C-cbl) (Cbl-b): 4.8x | IC50 (c-Cbl): 77 nM

Cn1cnnc1[C@](O)(c1cccc(N2Cc3c(cc(CNC4(C)CCC4)cc3C(F)(F)F)C2=O)c1)C(F)(F)F [Compound 307, (R)-6-(((1-methylcyclobutyl)amino)methyl)-2-(3-(2,2,2-trifluoro-1-hydroxy-1-(4-methyl-4H-1,2,4-triazol-3-yl)ethyl)phenyl)-4-(trifluoromethyl)isoindolin-1-one]
IC50 (Cbl-b): 7600 nM | fold-selectivity (Cbl-b over C-cbl) (Cbl-b): 1.5x | IC50 (c-Cbl): 12000 nM

CO[C@H]1C[C@](c2cccc(N3Cc4c(cc(CN5CCC6(CC5)CC(O)C6)cc4C(F)(F)F)C3=O)c2)(c2nncn2C)C1 [Compound 424, 6-((2-hydroxy-7-azaspiro[3.5]nonan-7-yl)methyl)-2-(3-((1r,3r)-3-methoxy-1-(4-methyl-4H-1,2,4-triazol-3-yl)cyclobutyl)phenyl)-4-(trifluoromethyl)isoindolin-1-one]
IC50 (Cbl-b; Example 121): 230 nM | (fold-selectivity) Cbl-b and C-Cbl Selectivity (Cbl-b): 6.5x | IC50 (c-Cbl): 1500 nM

Cn1cnnc1[C@@H](c1cccc(N2Cc3c(cc(CNC4(C)CCC4)cc3C(F)(F)F)C2=O)c1)C1CCS(=O)(=O)CC1 [Compound 299, (R)-2-(3-((1,1-dioxidotetrahydro-2H-thiopyran-4-yl)(4-methyl-4H-1,2,4-triazol-3-yl)methyl)phenyl)-6-(((1-methylcyclobutyl)amino)methyl)-4-(trifluoromethyl)isoindolin-1-one]
IC50 (Cbl-b): 2500 nM | fold-selectivity (Cbl-b over C-cbl) (Cbl-b): 1.5x | IC50 (c-Cbl): 3800 nM

Cn1cnnc1[C@@H](C[C@H]1COCCO1)c1cccc(N2Cc3c(cc(CNC4(C)CCC4)cc3C(F)(F)F)C2=O)c1 (single isomer, unassigned) [Compound 295, 2-(3-((S)-2-((S)-1,4-dioxan-2-yl)-1-(4-methyl-4H-1,2,4-triazol-3-yl)ethyl)phenyl)-6-(((1-methylcyclobutyl)amino)methyl)-4-(trifluoromethyl)isoindolin-1-one]
IC50 (Cbl-b): ≥ 20000 nM

C[C@@H](NC1(C)CCC1)c1cc2c(c(C(F)(F)F)c1)CN(c1cccc([C@@H](c3nncn3C)C3COC3)c1)C2=O [Compound 443, 2-(3-((S)-(4-methyl-4H-1,2,4-triazol-3-yl)(oxetan-3-yl)methyl)phenyl)-6-((R)-1-((1-methylcyclobutyl)amino)ethyl)-4-(trifluoromethyl)isoindolin-1-one]
IC50 (Cbl-b; Example 121): 3300 nM | (fold-selectivity) Cbl-b and C-Cbl Selectivity (Cbl-b): 1.7x | IC50 (c-Cbl): 5700 nM

Cn1cnnc1C1(c2cccc(N3Cc4c(cc(CNC5(C)CCC5)cc4C(F)(F)F)C3=O)c2)CC2(CCC2)C1 [Compound 40]
IC50 (Cbl-b): 8.9 nM | fold-selectivity (Cbl-b over C-cbl) (Cbl-b): (3.2x) | IC50 (c-Cbl): 28 nM

Cn1cnnc1[C@H](c1cccc(N2Cc3c(cc(CNC4(C)CCC4)cc3C(F)(F)F)C2=O)c1)C1CCOCC1.O=CO (single isomer, unassigned) [Compound 291]
Fold of selectivity [1]: 2.1× | fold-selectivity (Cbl-b over C-cbl) (Cbl-b): 4.3x

CCNc1cc(C2(c3nncn3C)CC(F)(F)C2)cc(N2Cc3c(cc(CNC4(C)CCC4)cc3C(F)(F)F)C2=O)n1 [Compound 62, 2-(4-(3,3-difluoro-1-(4-methyl-4H-1,2,4-triazol-3-yl)cyclobutyl)-6-(ethylamino)pyridin-2-yl)-6-(((1-methylcyclobutyl)amino)methyl)-4-(trifluoromethyl)isoindolin-1-one]
IC50 (Cbl-b): 5.5 nM

Cn1cnnc1[C@]1(c2cc(NC3CCCC3)nc(N3Cc4c(cc(CNC5(C)CCC5)cc4C(F)(F)F)C3=O)c2)C[C@@H](C)C1 [Compound 52, 2-(6-(cyclopentylamino)-4-((1r,3r)-3-methyl-1-(4-methyl-4H-1,2,4-triazol-3-yl)cyclobutyl)pyridin-2-yl)-6-(((1-methylcyclobutyl)amino)methyl)-4-(trifluoromethyl)isoindolin-1-one]
Fold of selectivity [1]: 11× | IC50 (Cbl-b): 7.2 nM | fold-selectivity (Cbl-b over C-cbl) (Cbl-b): (1.3x)

CO[C@@](c1cccc(N2Cc3c(cc(CNC4(C)CCC4)cc3C(F)(F)F)C2=O)c1)(c1nncn1C)C1CCC1 (single isomer, unassigned) [Compound 118]
IC50 (Cbl-b): ≥ 20000 nM | fold-selectivity (Cbl-b over C-cbl) (Cbl-b): 1.0x

CC1(NCc2cc3c(c(C(F)(F)F)c2)CN(c2cccc([C@@H](C4COC4)n4ccnn4)c2)C3=O)CCC1 (single isomer, unassigned) [Compound 436, (R)-6-(((1-methylcyclobutyl)amino)methyl)-2-(3-(oxetan-3-yl(1H-1,2,3-triazol-1-yl)methyl)phenyl)-4-(trifluoromethyl)isoindolin-1-one]
IC50 (Cbl-b; Example 121): 570 nM

Cn1cnnc1[C@]1(c2cc(NC3CCCC3)nc(N3Cc4c(cc(CNC5(C)CCC5)cc4C(F)(F)F)C3=O)c2)C[C@H](C)C1 [Compound 53, 2-(6-(cyclopentylamino)-4-((1s,3s)-3-methyl-1-(4-methyl-4H-1,2,4-triazol-3-yl)cyclobutyl)pyridin-2-yl)-6-(((1-methylcyclobutyl)amino)methyl)-4-(trifluoromethyl)isoindolin-1-one]
Fold of selectivity [1]: 9.2× | IC50 (Cbl-b): 5.7 nM | fold-selectivity (Cbl-b over C-cbl) (Cbl-b): (1.1x)

Cn1cnnc1[C@]1(c2cc(OC3CCCC3)nc(N3Cc4c(cc(CNC5(C)CCC5)cc4C(F)(F)F)C3=O)c2)C[C@@H](C)C1 [Compound 55, 2-(6-(cyclopentyloxy)-4-((1r,3r)-3-methyl-1-(4-methyl-4H-1,2,4-triazol-3-yl)cyclobutyl)pyridin-2-yl)-6-(((1-methylcyclobutyl)amino)methyl)-4-(trifluoromethyl)isoindolin-1-one]
IC50 (Cbl-b): 6.7 nM | fold-selectivity (Cbl-b over C-cbl) (Cbl-b): (1.4x)

Cn1cnnc1[C@]1(c2cc(OC3CCCC3)nc(N3Cc4c(cc(CNC5(C)CCC5)cc4C(F)(F)F)C3=O)c2)C[C@H](C)C1 [Compound 54, 2-(6-(cyclopentyloxy)-4-((1s,3s)-3-methyl-1-(4-methyl-4H-1,2,4-triazol-3-yl)cyclobutyl)pyridin-2-yl)-6-(((1-methylcyclobutyl)amino)methyl)-4-(trifluoromethyl)isoindolin-1-one]
Fold of selectivity [1]: 11× | IC50 (Cbl-b): 8.2 nM | fold-selectivity (Cbl-b over C-cbl) (Cbl-b): (1.4x)

Cn1cnnc1[C@]1(c2cc(NC3CCCCC3)nc(N3Cc4c(cc(CNC5(C)CCC5)cc4C(F)(F)F)C3=O)c2)C[C@H](C)C1 [Compound 51, 2-(6-(cyclohexylamino)-4-((1s,3s)-3-methyl-1-(4-methyl-4H-1,2,4-triazol-3-yl)cyclobutyl)pyridin-2-yl)-6-(((1-methylcyclobutyl)amino)methyl)-4-(trifluoromethyl)isoindolin-1-one]
IC50 (Cbl-b): 38 nM | fold-selectivity (Cbl-b over C-cbl) (Cbl-b): (1.6x)

Cn1cnnc1[C@]1(c2cc(NC3CCCCC3)nc(N3Cc4c(cc(CNC5(C)CCC5)cc4C(F)(F)F)C3=O)c2)C[C@@H](C)C1 [Compound 50, 2-(6-(cyclohexylamino)-4-((1r,3r)-3-methyl-1-(4-methyl-4H-1,2,4-triazol-3-yl)cyclobutyl)pyridin-2-yl)-6-(((1-methylcyclobutyl)amino)methyl)-4-(trifluoromethyl)isoindolin-1-one]
Fold of selectivity [1]: 3.0× | IC50 (Cbl-b): 31 nM | fold-selectivity (Cbl-b over C-cbl) (Cbl-b): (1.7x)

Cn1cnnc1[C@H](c1cccc(N2Cc3c(cc(CNC4(C)CCC4)cc3C(F)(F)F)C2=O)c1)[C@H]1C[C@H](C)C1 (single isomer, unassigned) [Compound 376]
IC50 (Cbl-b): 55 nM

CC(=O)N1CC(c2cccc(N3Cc4c(cc(CNC5(C)CCC5)cc4C(F)(F)F)C3=O)c2)(c2nncn2C)C1 [Compound 112, 2-(3-(1-acetyl-3-(4-methyl-4H-1,2,4-triazol-3-yl)azetidin-3-yl)phenyl)-6-(((1-methylcyclobutyl)amino)methyl)-4-(trifluoromethyl)isoindolin-1-one]
IC50 (Cbl-b): ≥ 20000 nM | fold-selectivity (Cbl-b over C-cbl) (Cbl-b): 1.0x
